# Measured values: patent US6670401B2, “Polysubstituted indan-1-ol compounds, and methods for their preparation and use” (Aventis Pharma Deutschland GmbH, priority 2001, dated 2003)
# Key:
# female NMRI mice = test: Anorectic action: cumulative evaporated milk consumption after 24 h feed removal; assay type: in vivo, mouse; conditions: 30 mg/kg i.p.
# Experimental: The activity of the compounds was assayed as follows:
# The anorectic action was tested on female NMRI mice. After removal of feed for 24 hours, the preparation to be tested was administered intraperitoneally (i.p.) or by gavage (po). The animals were housed singly and, with free access to drinking water, they were offered evaporated milk 30 minutes after administration of the preparation. The consumption of evaporated milk was determined and the general behavior of the animals was monitored every half an hour for 7 hours. The measured milk consumption was compared to that of vehicle-treated control animals.
smiles,measurement,setting,value
"CC1(O)c2ccc(Cl)cc2CC1(F)S(C)(=O)=O (stereo not drawn) [Example 1, 5-Chloro-2-fluoro-2-methanesulfonyl-1-methylindan-1-ol]",melting point,,148 °C
same,Reduction in cumulative milk consumption as % of the control,female NMRI mice; compared with vehicle-treated control animals,25%
same,cumulative milk consumption by treated animals,"female NMRI mice; milk offered 30 min after administration, monitored for 7 hours, N=4",4/2.88 ml
